These results are taken from patent US5011846A, “Medicament compositions derived from quinolizine and quinolizinone and methods of use thereof” (Merrell Dow Pharmaceuticals Inc., priority 1988, dated 1991).

For one assay, the system named is acute migraine attack. The conditions noted are these: cited from earlier work.
The subject of assay [1] is nausea and vomiting induced by cancer chemotherapeutic agents. Particulars: animal experimental model (Miner et al.; Costall et al.); cited from earlier work.
For another assay, the target named is 5-HT M-receptor. Particulars: literature values (Fozard et al.), 5-HT receptor antagonism; cited from earlier work.
The subject of assay [2] is Von Bezold-Jarisch Reflex induced by 5-HT. Briefly: Von Bezold-Jarisch Reflex induced by 5-HT injected intravenously into the rat. The assay is classed as in vivo. The source says:
The activity of these compounds against 5-HT can be assessed in vivo by measurement of the effect of the compound on the Von Bezold-Jarisch Reflex induced by 5-HT injected intravenously into the rat (see Paintal A.S., Physiol. Rev. 53, 159-227, 1973; J. R. Fozard, Naunyn-Schmiedeberg's Arch. Pharmacol., 326, 1984, 36-44). The transient cardiac slowing arises from an increased afferent vagus activity arising from stimulation by 5-HT of sensory afferent fibers in and around the heart.

The mark [3] stands for this setting: 0.01-0.1 mg/kg given intravenously.

Counter-ions that a name gives are not always drawn.

Regarding `CN1[C@@H]2CC[C@H]1C[C@@H](OC(=O)c1cc(Cl)cc(Cl)c1)C2` [3,5-dichlorobenzoyltropine], the “efficacy in the acute migraine attack” value in the assay on acute migraine attack (double-blind clinical trial (Loisy et al.)) is recorded as “proved an effective treatment”. Also, the “prevention of nausea and vomiting induced by cancer chemotherapeutic agents” value (“prevention” below) in assay [1] is listed as “highly effective”.
`CN1[C@@H]2CC[C@H]1C[C@@H](OC(=O)c1c[nH]c3ccccc13)C2` [(3α-tropanyl)-1H-indole-3-carboxylic acid ester]: the “prevention” value in assay [1] was “highly effective”.
With `CN1[C@@H]2CC[C@H]1C[C@@H](OC(=O)c1ccccc1)C2` [benzoyltropine], the pA2 at 5-HT M-receptor is recorded as 7.2.
For the molecule `Cc1cc(C)cc(C(=O)OC2CC3CC4CC(C2)N3CC4=O)c1` (stereo not drawn) [endo-8-(3,5-dimethylbenzoyl-oxy)hexahydro-2,6-methano-2H-quinolizin-3(4H)-one], the “suppression of Von Bezold-Jarisch Reflex response” value in assay [2] (setting [3]) and in assay [2] (0.25-1 mg/kg given orally) was “suppressed the response dose-dependently” in each case.
Consider `O=C(OC1CC2CC3CC(C1)N2CC3=O)c1c[nH]c2ccccc12` (stereo not drawn) [endo-hexahydro-8-(3-indolylcarbonyloxy)-2,6-methano-2H-quinolizin-3(4H)-one hydrochloride], for which the “suppression of Von Bezold-Jarisch Reflex response” value in assay [2] (setting [3]) and in assay [2] (0.25-1 mg/kg given orally) was “suppressed the response dose-dependently” throughout.
Turning to `CCN(CC)CCNC(=O)c1cc(Cl)c(N)cc1OC` [metoclopramide], the pA2 at 5-HT M-receptor is recorded as 7.2. Further, the “relief of an acute migraine attack” value with acute migraine attack (slow intravenous injection, 10 mg (Hughes 1977)) is listed as “immediate relief of an acute migraine attack”. The “prevention” value in assay [1] is reported as “highly effective”.
As for `COC(=O)[C@H]1[C@@H](OC(=O)c2ccccc2)C[C@@H]2CC[C@H]1N2` [nor (-) cocaine], the pA2 on 5-HT M-receptor is reported as 7.7.
Regarding `CN1[C@@H]2CC[C@H]1C[C@H](OC(=O)c1ccccc1)C2` [pseudotropyl benzoate], the pA2 at 5-HT M-receptor was 7.0.

A word on the pA2: it is a measure of antagonist potency on a negative log scale.
